Experimental findings from patent US9540357B1, “15-aryl prostaglandins as EP4 agonists, and methods of use thereof” (Allergan, Inc., priority 2014, dated 2017) are described below.

The target in assay [1] is T1, EP4 (Homo sapiens (Human), UniProt P35408). In words: cAMP assay, EP4. The assay is classed as cell-based. To be noted: HEK-EBNA cells expressing EP4. The method, then: A 384-well drug plate was prepared to contain 6 test compounds, PGE2 and cAMP in 16 serial dilutions in triplicate, using a Biomek station. HEK-EBNA cells expressing a target PG receptor subtype (EP2 or EP4) were suspended in a stimulation buffer (HBSS, 0.1% BSA, 0.5 mM IBMX and 5 mM HEPES, pH 7.4) in a density of 10^4 cells/5 microliters. The reaction was initiated by mixing 5 microliters drug dilutions with 5 microliters of HEK-EBNA cells in a well, carried out for 30 min at room temperature, and followed by the addition of 5 microliters anti-cAMP acceptor beads in the control buffer with Tween-20 (25 mM NaCl, 0.03% Tween-20, 5 mM HEPES, pH 7.4). After 30 min in the dark at room temperature, the mixtures were incubated with 15 microliters biotinylated-cAMP/streptavidin donor beads in Lysis/Detection buffer (0.1% BSA, 0.3% Tween-20 and 5 mM HEPES, pH 7.4) for 45 min at room temperature. Fluorescence changes were read using a Fusion-alpha microplate reader.
T1 sequence (P35408 whole entry): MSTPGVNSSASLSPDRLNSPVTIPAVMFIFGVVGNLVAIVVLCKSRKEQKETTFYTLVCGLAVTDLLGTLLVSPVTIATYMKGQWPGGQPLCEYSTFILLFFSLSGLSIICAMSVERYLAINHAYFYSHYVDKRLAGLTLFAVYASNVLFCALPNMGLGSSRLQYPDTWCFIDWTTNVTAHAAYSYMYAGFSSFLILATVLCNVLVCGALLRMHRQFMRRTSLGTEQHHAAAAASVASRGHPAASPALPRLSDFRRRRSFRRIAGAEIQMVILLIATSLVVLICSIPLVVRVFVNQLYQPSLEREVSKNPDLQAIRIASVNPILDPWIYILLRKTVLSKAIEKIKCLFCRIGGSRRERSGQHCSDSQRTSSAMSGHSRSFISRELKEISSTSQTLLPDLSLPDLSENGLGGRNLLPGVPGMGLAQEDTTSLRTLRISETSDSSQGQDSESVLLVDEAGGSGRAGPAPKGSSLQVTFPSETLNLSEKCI
Background: Cyclic AMP is a second messenger, typically raised through Gs and lowered through Gi signalling.

Assay [2] has as its target EP2 (Homo sapiens (Human), UniProt P43116). In words: Competition binding ([3H]PGE2), EP2. The conditions noted are these: HEK 293 cells stably expressing human EP2 receptors, [3H]PGE2 10 nM. On the procedure: Competition binding experiments were performed in a medium containing Hank's balanced salt solution, HEPES 20 mM, pH 7.3, membranes (˜60 μg protein) or 2×10^5 cells from HEK 293 cells stably expressing human EP2 receptors, [^3H]PGE2 (10 nM) and various concentrations of test compounds in a total volume of 300 μl. Reaction mixtures were incubated at 23° C. for 60 min, and were filtered over Whatman GF/B filters under vacuum. Filters were washed three times with 5 ml ice-cold buffer containing 50 mM Tris/HCl (pH 7.3). Non-specific binding was estimated in the presence of excess unlabeled PGE2 (10 μM). Binding data fitted to the binding model for a single class of binding sites, using nonlinear regression analysis. IC50 values thus obtained were converted to Ki using the equation of Ki=(IC50/(1+[L]/KD) where [L] represents PGE2 concentration (10 nM) and KD the dissociation constant for [^3H]PGE2 at human EP2 receptors (40 nM).

Assay [3] addresses T1, EP4. Briefly: Competition binding, EP4.

Bounds are passed on as bounds.

Sequence of EP2 (P43116 whole entry): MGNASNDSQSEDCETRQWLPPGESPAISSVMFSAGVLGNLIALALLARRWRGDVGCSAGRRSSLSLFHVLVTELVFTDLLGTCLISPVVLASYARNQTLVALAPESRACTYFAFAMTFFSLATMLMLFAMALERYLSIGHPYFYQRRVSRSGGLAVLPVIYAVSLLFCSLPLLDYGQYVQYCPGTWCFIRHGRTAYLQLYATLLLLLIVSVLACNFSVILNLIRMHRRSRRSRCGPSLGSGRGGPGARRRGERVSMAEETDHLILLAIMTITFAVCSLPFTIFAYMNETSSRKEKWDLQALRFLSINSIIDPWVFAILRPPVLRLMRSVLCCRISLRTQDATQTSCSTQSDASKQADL

A word on the Ki: it is the equilibrium dissociation constant of an inhibitor or competing ligand from its target. A lower Ki goes with a stronger hold on the target. With `CC(C)(C)c1cc(Cl)ccc1-c1cccc(C(O)/C=C/[C@H]2CCC(=O)N2CCCc2ccc(C(=O)O)cc2)c1` (stereo partly drawn) [Example 26, 4-(3-{2(R)-[(1E)-3-(2′-tert-butyl-4′-chlorobiphenyl-3-yl)-3-hydroxyprop-1-en-1-yl]-5-oxopyrrolidin-1-yl}propyl)benzoic acid], the EP4 cAMP EC50 in assay [1] was above 10000 nM. This compound also gave an EP2 Ki in assay [2] above 10000 nM. Also, the inhibition constant Ki in assay [3] worked out at 8850 nM.

As usually defined, the EC50 is the concentration that produces a half-maximal response. A higher EC50 goes with a need for much substance. In assay [1], `CC(C)(C)c1cc(Cl)ccc1-c1cccc(C(O)/C=C/[C@H]2CCC(=O)N2CCCc2ccc(C(=O)O)cc2)c1` (stereo partly drawn) [Example 27, 4-(3-{2(R)-[(1E)-3-(2′-tert-butyl-4′-chlorobiphenyl-3-yl)-3-hydroxyprop-1-en-1-yl]-5-oxopyrrolidin-1-yl}propyl)benzoic acid] displayed an EC50 of 107 nM. The compound also came in with an EP2 Ki in assay [2] above 10000 nM. In assay [3], this compound registered a Ki of 757 nM.

In turn, `CCCCc1cc(Cl)ccc1-c1cccc(C(O)/C=C/[C@H]2CCC(=O)N2CCCc2ccc(C(=O)O)cc2)c1` (stereo partly drawn) [Example 29, 4-(3-{2(R)-[(1E)-3-(2′-butyl-4′-chlorobiphenyl-3-yl)-3-hydroxyprop-1-en-1-yl]-5-oxopyrrolidin-1-yl}propyl)benzoic acid] gave an EC50 in assay [1] of 117 nM. The same compound displayed an EP2 Ki in assay [2] above 10000 nM. The Ki in assay [3] was determined as 319 nM.

As to `CC(C)c1cc(O)ccc1-c1cccc(C(O)/C=C/[C@H]2CCC(=O)N2CCCc2ccc(C(=O)O)cc2)c1` (stereo partly drawn) [Example 30, 4-[3-(2(R)-{(1E)-3-hydroxy-3-[4′-hydroxy-2′-(propan-2-yl)biphenyl-3-yl]prop-1-en-1-yl}-5-oxopyrrolidin-1-yl)propyl]benzoic acid], in assay [1], a half-maximal effect (EC50) was put at 134 nM. The EP2 Ki in assay [2] is above 10000 nM. The compound also came in with a Ki in assay [3] of 582 nM.

`CC(C)c1cc(O)ccc1-c1cccc(C(O)/C=C/[C@H]2CCC(=O)N2CCCc2ccc(C(=O)O)cc2)c1` (stereo partly drawn) [Example 31, 4-[3-(2(R)-{(1E)-3-hydroxy-3-[4′-hydroxy-2′-(propan-2-yl)biphenyl-3-yl]prop-1-en-1-yl}-5-oxopyrrolidin-1-yl)propyl]benzoic acid] returned an EC50 in assay [1] of 60 nM. In addition, the EP2 Ki in assay [2] was above 10000 nM. In addition, the affinity in assay [3], expressed as Ki, was 211 nM.

In turn, `Cc1cc(Cl)ccc1-c1ccc(C(O)/C=C/[C@H]2CCC(=O)N2CCCc2ccc(C(=O)O)cc2)s1` (stereo partly drawn) [Example 33, 4-[3-(2(R)-{(1E)-3-[5-(4-chloro-2-methylphenyl)thiophen-2-yl]-3-hydroxyprop-1-en-1-yl}-5-oxopyrrolidin-1-yl)propyl]benzoic acid] had an EC50 in assay [1] of 118 nM. Besides, the EP2 Ki in assay [2] is above 10000 nM. For the same compound, the Ki in assay [3] was 536 nM.
